Data as given in patent publication US5744320A (priority 1995, dated 1998).

Columns and labels:
[1] = target: T1, Renilla Luciferase (Renilla reniformis, UniProt P27652); assay: Quenching of the luminescent reaction of Renilla luciferase by RLQ reagents (Table 3); format: biochemical
T1 sequence (P27652 1-311): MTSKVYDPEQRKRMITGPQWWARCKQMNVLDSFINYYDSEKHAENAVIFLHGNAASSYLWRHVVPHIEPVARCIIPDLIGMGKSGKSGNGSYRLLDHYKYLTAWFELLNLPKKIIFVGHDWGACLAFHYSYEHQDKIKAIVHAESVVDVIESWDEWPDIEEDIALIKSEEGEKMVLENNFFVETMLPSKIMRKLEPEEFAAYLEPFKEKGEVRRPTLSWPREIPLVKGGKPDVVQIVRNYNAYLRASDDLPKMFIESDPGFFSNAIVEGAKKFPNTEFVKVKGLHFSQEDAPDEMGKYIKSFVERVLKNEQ
Description: Numerous chemical compounds were tested individually and in combination for their ability to rapidly quench luciferase catalyzed luminescent reactions. Table 1 and Table 3 present the potency of quenching firefly and Renilla luciferases, respectively, for representative concentrations of the compounds tested. The percentage of residual luminescent signal measured after addition of the test compound is indicative of its quenching efficiency. Whether used individually or in combination at varying concentrations, useful quench formulations should be capable of reducing luminescence from the luciferase reactions by 1,000-fold, i.e., to 0.1% of the starting luminescent emission.
Renilla luciferase reactions were performed by adding 100 μl of purified Renilla luciferase (typically diluted to 0.3 μg per ml in 75 mM HEPES, 0.02% BSA; pH 8) to a luminometer tube containing an equal volume of Renilla substrate solution (7.5 mM sodium acetate, 10 mM CDTA, 400 mM sodium sulfate, 25 μM APMBT, 15 mM sodium pyrophosphate, 2 μM coelenterazine; pH 5.5). Photon emission was quantified as previously described. The individual and combined chemical formulations summarized in Table 3 were evaluated for their ability to quench Renilla luciferase luminescence by adding 100 μl of the test solution to the luminescent reaction, then quantifying residual light emission as before.

[2] = target: T2, Firefly Luciferase (Photinus pyralis, UniProt P08659, K549A/L550V/N119G/N50D/S548I); assay: biochemical; format: biochemical
T2 construct: host or cells: Chinese hamster ovary (CHO) cells, transient transfection, cleared lysate
T2 sequence (P08659 whole entry N50D/N119G/S548I/K549A/L550V): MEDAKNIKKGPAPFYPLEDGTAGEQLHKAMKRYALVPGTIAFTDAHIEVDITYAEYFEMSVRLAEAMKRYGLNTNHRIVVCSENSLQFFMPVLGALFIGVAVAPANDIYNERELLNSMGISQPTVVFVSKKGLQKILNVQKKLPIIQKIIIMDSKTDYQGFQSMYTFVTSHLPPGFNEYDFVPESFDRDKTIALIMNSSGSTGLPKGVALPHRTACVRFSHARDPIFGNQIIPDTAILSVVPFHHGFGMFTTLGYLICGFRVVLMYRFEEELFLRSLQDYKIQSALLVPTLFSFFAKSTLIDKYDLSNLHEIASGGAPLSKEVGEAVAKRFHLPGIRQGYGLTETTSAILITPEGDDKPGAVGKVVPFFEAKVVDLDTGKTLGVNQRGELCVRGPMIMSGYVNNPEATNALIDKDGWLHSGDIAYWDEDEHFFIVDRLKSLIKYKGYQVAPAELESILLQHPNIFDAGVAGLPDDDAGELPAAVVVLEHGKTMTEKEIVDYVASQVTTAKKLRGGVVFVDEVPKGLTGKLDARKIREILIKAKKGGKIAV

[3] = target: T1, Renilla Luciferase; assay: Compatibility of BLA and BLQ reagent chemicals with the luminescent reaction of Renilla luciferase (Table 4); format: biochemical
Source text: Implicit to the concept of an integrated (i.e., sequential-measurement) dual-enzyme reporter assay is the necessity to efficiently quench luminescence from the first reporter enzyme such that the activity of the second luminescent reporter is not inhibited. Therefore a quench reagent is required that is extremely potent in quenching luminescence from the firefly reaction but can exist as a passive component in the subsequent luminesces reaction catalyzed by Renilla luciferase. Selected chemical components of Beetle Luciferase Activation (BLA) Reagent, and chemicals identified in Table 1 as candidate Beetle Luciferase Quench (BLQ) Reagents, were further evaluated to assess any inhibitory interaction they may have with the luminescent reaction catalyzed by Renilla luciferase. Table 4 summarizes the affect of these selected chemicals on the luminescent activity of Renilla luciferase. Because of its potent inhibitory affect on the firefly reaction, sodium pyrophosphate (Na4 PPi) was tested first. 100 μl Mathews' Buffer supplemented with 2 μM benzyl-coelenterazine and 15 mM Na4 PPi was dispensed into a luminometer tube containing approximately 3 ng of purified Renilla luciferase in 100 μl Mathews' Buffer, and luminescence was quantified. […]

[4] = target: T2, Firefly Luciferase; assay: biochemical; settings: read-out: Percent (%) Residual Firefly Luciferase Activity
Description: Assays were performed using a cell extract prepared from CHO cells expressing firefly luciferase (described in detail below) and further supplemented with purified Renilla luciferase (approximately 0.3 μg/ml). Thus, the prepared extract simulates the experimental condition in which a single cell population is induced to simultaneously express two distinct luciferase reporter enzymes. Reactions to determine Renilla luciferase activity were conducted by first dispensing 10 μl of extract into a luminometer tube containing 100 μl BLA Reagent (75 mM HEPES, 4 mM MgSO4, 20 mM DTT, 100 μM EDTA, 530 μM ATP, 270 μM CoA, 470 μM beetle luciferin: pH 8.0), then adding 100 μl of one of the various BLQRLA test reagents. The 100% control value for Reporter #1, the firefly luciferase-mediated luminescent reaction, was determined by quantifying light emission from said reaction prior to addition of the designated BLQRLA Reagent. The 100% control value for Reporter #2, the Renilla luciferase-mediated luminescent reaction, was determined using the dual-reporter assay format in which
control BLQRLA Reagent (7.5 mM acetic acid, 15 mM Na4 PPi, 400 mM Na2 SO4, 2 μM coelenterazine; pH 5.0) was added to the firefly luciferase reaction in a 1:1 volume ratio.

[5] = assay concentration 0.33% (v/v)
[6] = read-out: Percent (%) Residual Firefly Luciferase Activity

## Tween ®20
[1]; [5]
  Percent (%) Residual Renilla Luciferase Activity: 3.4%

## CCCCCCCCCCCCOS(=O)(=O)[O-].[Na+] [SDS, Sodium Dodecyl Sulfate]
[2]; [6]
  remaining activity at 0.3 %: 0.079%
[1]; assay concentration 0.33% (w/v), read-out: Percent (%) Residual Renilla Luciferase Activity
  remaining activity at 0.33 %: 0.00029%

## O=P([O-])([O-])O.[K+].[K+] [K2 HPO4]
[2]; assay concentration 190 mM
  Percent (%) Residual Firefly Luciferase Activity: 8.3%

## O=C(O)CN(CC(=O)O)[C@@H]1CCCC[C@H]1N(CC(=O)O)CC(=O)O (relative stereo) [CDTA, trans-1,2,-Diaminocyclohexane-N,N,N',N'-tetraacetic acid]
[2]; [6]
  remaining activity at 15400 µM: 0.1%

## CC(C)O [iso-Propanol, iso-propanol]
[2]; [6]
  remaining activity at 14.4 %: 2.3%

## c1ccc2scnc2c1 [BT, Benzothiazole]
[2]; [6]
  remaining activity at 3000 µM: 2.3%

## Triton ® X-100
[1]; [5]
  Percent (%) Residual Renilla Luciferase Activity: 3.1%

## O=C(O)CC(O)(CC(=O)O)C(=O)O [Citric Acid, pH 3, citric acid]
[1]; assay concentration 6.67 mM, read-out: Percent (%) Residual Renilla Luciferase Activity
  remaining activity at 6670 µM: 5.3%

## O=P([O-])([O-])OP(=O)([O-])[O-].[Na+].[Na+].[Na+].[Na+] [Na4 PPi, Tetrasodium Pyrophosphate]
[3]; Mathews' Buffer with 15 mM Na4 PPi added 1:1, compared to control lacking sodium pyrophosphate
  inhibitory effect on the luminescent reaction catalyzed by Renilla luciferase: no inhibitory affect
[3]; assay concentration 7.5 mM, control = 100%, read-out: Percent (%) Renilla Luciferase Activity
  activity at 7500 µM: 102%
[2]; [6]
  remaining activity at 31000 µM: 0.12%
[4]
  remaining activity at 7500 µM: 1%

## Oc1ccccc1-c1nc2ccccc2s1 [HPBT, 2(O-Hydroxyphenyl)benzothiazole]
[2]; [6]
  remaining activity at 30 µM: 44%

## O=C(O)c1csc(-c2nc3ccc(O)cc3s2)n1 [Dehydroluciferin, 2-(6'-Hydroxy-2'-benzothiazolyl)-thiazole-4-carboxylic acid]
[2]; assay concentration: Saturating
  Percent (%) Residual Firefly Luciferase Activity: 0.064%

## O=C(O)CN(CCN(CC(=O)O)CC(=O)O)CC(=O)O [EDTA, Ethylenediaminetetraacetic acid]
[2]; [6]
  remaining activity at 22700 µM: 0.13%

## O=[N+]([O-])[O-].[Na+] [NaNO3]
[2]; assay concentration 400 mM
  Percent (%) Residual Firefly Luciferase Activity: 2.1%

## Cc1ccc2nc(-c3ccc(N)cc3)sc2c1 [APMBT, 2-(4-aminophenyl)-6-methylbenzothiazole]
[2]; [6]
  remaining activity at 7.6 µM: 0.33%

## [I-].[Na+] [NaI, sodium iodide]
[2]; assay concentration 400 mM
  Percent (%) Residual Firefly Luciferase Activity: 0.078%
[1]; assay concentration 330 mM
  Percent (%) Residual Renilla Luciferase Activity: 5.9%

## [Cl-].[Na+] [NaCl]
[2]; assay concentration 400 mM
  Percent (%) Residual Firefly Luciferase Activity: 8.3%

## c1ccc(-c2nc3ccccc3s2)cc1 [PBT, 2-Phenylbenzothiazole]
[2]; assay concentration 0.15 mM, read-out: Percent (%) Residual Firefly Luciferase Activity
  remaining activity at 150 µM: 7.5%

## O=S(=O)([O-])[O-].[Na+].[Na+] [Na2 SO4, sodium sulfate]
[2]; assay concentration 400 mM
  Percent (%) Residual Firefly Luciferase Activity: 10%

## Nc1ncnc2c1ncn2[C@@H](CO)O[C@@H](CO)COP(=O)(O)OP(=O)(O)OP(=O)(O)O [or-ATP, Adenosine 5'-Triphosphate 2',3'-acyclic dialcohol, Periodate Oxidized, Borohydride Reduced]
[2]; [6]
  remaining activity at 7600 µM: 0.78%

## CCCCCCCCCCP(C)(C)=O [APO-10, Dimethyldecylphosphine Oxide]
[2]; [6]
  remaining activity at 1 %: 1.9%

## CCCCO [n-Butanol, n-butanol]
[1]; assay concentration 1.67% (v/v), read-out: Percent (%) Residual Renilla Luciferase Activity
  remaining activity at 1.67 %: 4.5%
